{"source": "patent US20240180868A1", "about": "“PHARMACEUTICAL COMPOSITION FOR PREVENTION OR TREATMENT OF VIRUS INFECTION, THE PHARMACEUTICAL COMPOSITION COMPRISING ROTTLERIN AS ACTIVE INGREDIENT” (QVET, priority 2021, published 2024)", "key": {"[1]": {"system": "PRRSV", "assay": "PRRSV protein expression, fluorescent immunostaining of nucleocapsids", "type": "cell-based", "conditions": "10 μM; 48 hours after inoculation", "procedure": "To evaluate the inhibitory effect of rottlerin or rottlerin liposomes against PRRSV protein expression, the cells were treated with 5 μM rottlerin liposomes and 10 μM rottlerin, and 48 hours after inoculation, fluorescent immunostaining was performed using primary antibody for PRRSV nucleocapsids and Alexa 488 secondary antibody."}, "[2]": {"system": "PRRSV FL12", "assay": "PRRSV animal model, 4-week-old pigs, intranasal spray", "type": "in vivo", "conditions": "1 mg intranasal", "procedure": "Validity assessment for target animals were performed using 4-week-old pigs. A total of 15 pigs were used, and randomly distributed into a positive PRRSV FL12 administration group, a rottlerin liposome 100 μg administration group (R-L 100 μg), a rottlerin liposome 1 mg administration group (R-L 1 mg), and a rottlerin raw material 1 mg administration group (R 1 mg), wherein four animals were used for each group (three animals were used for the rottlerin liposome 100 μg administration group).\nThe pigs of each group were inoculated with 10^5 TCID50/ml FL12, and after the inoculation, 2 ml of each therapeutic agent was intranasally administered by spray.\nSera were separated from the pigs on days 1, 3, 7, 14, and 19, and the pigs were euthanized and necropsied on day 19 of inoculation. The lung tissue of each pig was collected and lesions were evaluated, thereby calculating lung lesion scores. […]\nMicroscopic lung lesions were measured from 0 to 4 according to the degree of interstitial pneumonia as follows: (0, no lesions; 1, mild lesions or less than half being lesions; 2, common lesions or half being lesions; 3, moderately spread lesions or more than half being lesions; 4, severe lesions or full lesions). […]"}}}
{"smiles": "CC(=O)c1c(O)c(C)c(O)c(Cc2c(O)c3c(c(C(=O)/C=C/c4ccccc4)c2O)OC(C)(C)C=C3)c1O", "note": "[rottlerin]", "values": [{"measurement": "PRRSV virus proteins detected by fluorescent immunostaining", "setting": "[1]", "result": "virus proteins were not detected"}, {"measurement": "clinical symptom score", "setting": "[2]; scored daily 0 to 6", "result": "significant decrease in clinical symptom score on days 8, 16, 17, and 18"}, {"measurement": "area under curve (AUC) of viremia, qRT-PCR", "setting": "[2]; vs FL12 group, p≤0.05", "result": "significantly lower"}]}
